Experimental data taken from PubChem BioAssay (NCI).
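Five concentrations, 48 hours, 96-well plates. GI50 is the concentration that inhibits growth by half. TGI: concentration producing complete growth inhibition.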 Activity calls are given as the source filed them. Cut-off read from the data, not from the text of the source: active = GI50 below about 0.43 µM; inactive = the rest.

Key:
Experiment in all cases: NCI anticancer screen, dose series, 48 h
A549 NSCLC = tested on: A549 NSCLC
HCC-2998 colon = tested on: HCC-2998 colon
SK-MEL-5 melanoma = tested on: SK-MEL-5 melanoma
SK-OV-3 ovarian = tested on: SK-OV-3 ovarian
SW-620 colon = tested on: SW-620 colon
UACC-62 melanoma = tested on: UACC-62 melanoma
SR leukemia = tested on: SR leukemia
T-47D breast = tested on: T-47D breast

Row | Structure (SMILES) | TGI (A549 NSCLC) [µM] | TGI (HCC-2998 colon) [µM] | TGI (SK-MEL-5 melanoma) [µM] | TGI (SK-OV-3 ovarian) [µM] | TGI (SW-620 colon) [µM] | TGI (UACC-62 melanoma) [µM] | GI50 (A549 NSCLC) [µM] | GI50 (HCC-2998 colon) [µM] | GI50 (SK-MEL-5 melanoma) [µM] | GI50 (SK-OV-3 ovarian) [µM] | GI50 (SR leukemia) [µM] | TGI (SR leukemia) [µM] | GI50 (SW-620 colon) [µM] | GI50 (T-47D breast) [µM] | TGI (T-47D breast) [µM] | GI50 (UACC-62 melanoma) [µM] | outcome (SK-OV-3 ovarian) | outcome (SW-620 colon) | outcome (UACC-62 melanoma)
1 | O=NN1C(c2ccccc2)CCCC1c1ccccc1 (configuration not stated) | > 100 | > 100 | > 100 | > 82.3 | > 100 | > 100 |  |  |  |  |  |  |  |  |  |  |  |  | 
2 | COc1cc(/C(=C2/O[C@@H]([C@H]3COC(C)(C)O3)[C@H]3OC(C)(C)O[C@@H]23)c2ccc3c(c2)OCO3)cc(OC)c1OC | > 25 | > 25 | > 25 | > 25 | > 25 | > 25 | > 25 | > 25 | 13 | > 25 | > 25 | > 25 | > 25 | 14.5 | > 25 | > 25 |  |  | 
3 | CCOC(=O)C1=C(c2ccccc2)C12N(Cc1ccccc1)C(=O)C2(c1ccccc1)c1ccccc1 (configuration not stated) |  | 90.3 |  | > 100 | > 100 | > 100 |  |  |  |  |  | > 100 |  |  | > 100 |  |  |  | 
4 | O=P(O)(O)CN1CCNCCN(CP(=O)(O)O)CCN(CP(=O)(O)O)CCNCC1 |  |  |  |  |  |  |  |  |  |  |  |  |  |  |  |  | inactive | inactive | inactive
5 | COc1cc(-c2nc3cc(Cl)c(Cl)cc3[nH]2)ccc1OCC(=O)N=Nc1c(O)[nH]c2ccc(Cl)cc12 |  |  |  | 4.57 |  | 2.54 |  |  |  | 1.83 | 0.252 | 1.39 |  | 0.381 | 2.37 | 1.2 |  |  | 
6 | C[N+]1([O-])[C@H]2CC(OC(=O)[C@H](CO)c3ccccc3)C[C@H]1[C@H]1O[C@H]12 (some centres not stated) | > 100 |  | > 100 | > 100 | > 100 | > 100 |  |  |  |  |  | > 100 |  |  | > 100 |  |  |  | 
7 | O=Cc1c(Br)[nH]c2ccccc12 | > 100 | > 100 | > 100 | > 100 | > 100 | > 100 |  |  |  |  |  |  |  |  |  |  |  |  | 
8 | COc1ccc([C@H]2c3cc4c(cc3OC(O)(CO)[C@H]2C(=O)O)OCO4)c(OC)c1 (some centres not stated) (tested in a mixture with another compound) | > 100 | > 100 | > 100 | > 100 | > 100 | > 100 |  |  |  |  |  | > 100 |  |  |  |  |  |  | 
9 | Cc1cc2oc3c(ccc(=O)n3C)c(=O)c2c(C)c1Cl | > 100 | > 100 | > 100 | > 100 | > 100 | > 100 |  |  |  |  |  | > 100 |  |  | > 100 |  |  |  | 
10 | CCCCOc1ccc2c(c1)CC[C@@H]1[C@@H]2CC[C@]2(C)C(=O)N(CCCC)C(=O)C[C@@H]12 |  | > 100 | > 100 | > 100 |  | > 100 |  |  |  |  |  | > 100 |  |  | > 100 |  |  |  | 
11 | O=C(c1ccccc1O)c1cc(-c2ncc3c(=O)c4ccccc4oc3n2)c(-c2ccccc2O)[nH]c1=O | 73.1 | 38.2 | 25.8 | 85.2 | > 77.1 | 51.4 |  |  |  |  |  |  |  |  |  |  |  |  | 
12 | O=C(Nc1ccc(Sc2ccc(N=Nc3c(O)c(S(=O)(=O)O)cc4cc(S(=O)(=O)O)ccc34)cc2)cc1)c1ccc(N=Nc2c(O)c(S(=O)(=O)O)cc3cc(S(=O)(=O)O)ccc23)cc1 | > 100 | > 100 | 53.9 | > 100 | > 100 | 62 |  |  |  |  |  | 54 |  |  |  |  |  |  | 
13 | NCCS(=O)(=O)O | > 100 | > 100 | > 100 |  | > 100 |  |  |  |  |  |  | > 100 |  |  | > 100 |  |  |  | 
